Measurements from patent US20090156517A1, “STABLE PHARMACEUTICAL COMPOSITIONS OF AMINOGLYCOSIDE ANTIBIOTICS, ION-CHELATING AGENTS, AND BUFFERS” (priority 2006, published 2009).
“Also recorded” adds a separate entry of the source.

Tests used:
[1] = Amounts of antibiotic components in the solution over time (reverse-phase LC/UV for β-lactams and β-lactamase inhibitors, HPLC/evaporation-light-scattering for aminoglycosides); assay type: physicochemical
Experimental: The amounts of β-lactam antibiotics and β-lactamase inhibitor were determined using C18 reverse-phase LC and UV-VIS detector (Tianjin […] Co., Ltd., analysis method No. HM-K-03). The content of aminoglycoside antibiotics was measured using reverse-phase HPLC and evaporation-light-scattering detector (Tianjin […] Co., Ltd., analysis method No. HM-K-08). […] The relative amount of each antibiotic component in the composition at each time point was expressed as peak area ratio with respect to the corresponding peak area of an external standard.

[2] = HIAC light obscuration test (USP 788), aggregate particle content; assay type: physicochemical; conditions: composition prepared as a liquid solution
Experimental: Light obscuration testing was performed for solution preparations prepared with some of the compositions described in the examples according to the method described in the United States Pharmacopeia (USP 788) using HIAC-3000 light obscuration detector. Particle content is denoted by the number of particles per milliliter of solution. The value is an average of two measurements. Samples were tested at 1 hour and at 20 hours.

[3] = Example 14: cefoperazone sodium/tazobactam sodium solution pH 6.75, disodium EDTA and amikacin sulfate added, room temperature, 0 h
[4] = Example 14: cefoperazone sodium/tazobactam sodium solution pH 6.75, disodium EDTA and amikacin sulfate added, room temperature, 1 h
[5] = Example 14: cefoperazone sodium/tazobactam sodium solution pH 6.75, disodium EDTA and amikacin sulfate added, room temperature, 2 h
[6] = Example 14: cefoperazone sodium/tazobactam sodium solution pH 6.75, disodium EDTA and amikacin sulfate added, room temperature, 4 h
[7] = Example 14: cefoperazone sodium/tazobactam sodium solution pH 6.75, disodium EDTA and amikacin sulfate added, room temperature, 6 h
[8] = Example 14: cefoperazone sodium/tazobactam sodium solution pH 6.75, disodium EDTA and amikacin sulfate added, room temperature, 8 h

SMILES: CCN1CCN(C(=O)N[C@@H](C(=O)N[C@@H]2C(=O)N3[C@@H]2SC(C)(C)[C@@H]3C(=O)O)c2ccccc2)C(=O)C1=O [Piperacillin, piperacillin]
- Amount of component, percentage of amount at initial time ([1]; Example 10: piperacillin sodium/sulbactam sodium solution cryopreserved 7 days, thawed, pH 6.0, etimicin sulfate added, no EDTA, 0 h): 101.8%
- Amount of component, percentage of amount at initial time ([1]; Example 10: piperacillin sodium/sulbactam sodium solution cryopreserved 7 days, thawed, pH 6.0, etimicin sulfate added, no EDTA, 1 h): 101.3%
- Amount of component, percentage of amount at initial time ([1]; Example 10: piperacillin sodium/sulbactam sodium solution cryopreserved 7 days, thawed, pH 6.0, etimicin sulfate added, no EDTA, 2 h): 101.8%
- Amount of component, percentage of amount at initial time ([1]; Example 10: piperacillin sodium/sulbactam sodium solution cryopreserved 7 days, thawed, pH 6.0, etimicin sulfate added, no EDTA, 4 h): 101.2%
- Amount of component, percentage of amount at initial time ([1]; Example 10: piperacillin sodium/sulbactam sodium solution cryopreserved 7 days, thawed, pH 6.0, etimicin sulfate added, no EDTA, 6 h): 98.3%
- Amount of component, percentage of amount at initial time ([1]; Example 10: piperacillin sodium/sulbactam sodium solution cryopreserved 7 days, thawed, pH 6.0, etimicin sulfate added, no EDTA, 8 h): 95.1%
- Amount of component, percentage of amount at initial time ([1]; Example 11: solution of Example 10 freeze-dried, stored 7 days at 0° C., redissolved, pH 6.0, etimicin sulfate and disodium EDTA added, 0 h): 101.8%
- Amount of component, percentage of amount at initial time ([1]; Example 11: solution of Example 10 freeze-dried, stored 7 days at 0° C., redissolved, pH 6.0, etimicin sulfate and disodium EDTA added, 1 h): 101.3%
- Amount of component, percentage of amount at initial time ([1]; Example 11: solution of Example 10 freeze-dried, stored 7 days at 0° C., redissolved, pH 6.0, etimicin sulfate and disodium EDTA added, 2 h): 101.8%
- Amount of component, percentage of amount at initial time ([1]; Example 11: solution of Example 10 freeze-dried, stored 7 days at 0° C., redissolved, pH 6.0, etimicin sulfate and disodium EDTA added, 4 h): 101.2%
- Amount of component, percentage of amount at initial time ([1]; Example 11: solution of Example 10 freeze-dried, stored 7 days at 0° C., redissolved, pH 6.0, etimicin sulfate and disodium EDTA added, 6 h): 98.3%
- Amount of component, percentage of amount at initial time ([1]; Example 11: solution of Example 10 freeze-dried, stored 7 days at 0° C., redissolved, pH 6.0, etimicin sulfate and disodium EDTA added, 8 h): 95.1%
- Amount of component, percentage of amount at initial time ([1]; Example 12: thawed solution from Example 10, pH 6.0, amikacin sulfate added, no EDTA, 0 h): 101.8%
- Amount of component, percentage of amount at initial time ([1]; Example 12: thawed solution from Example 10, pH 6.0, amikacin sulfate added, no EDTA, 1 h): 101.3%
- Amount of component, percentage of amount at initial time ([1]; Example 12: thawed solution from Example 10, pH 6.0, amikacin sulfate added, no EDTA, 2 h): 101.8%
- Amount of component, percentage of amount at initial time ([1]; Example 12: thawed solution from Example 10, pH 6.0, amikacin sulfate added, no EDTA, 4 h): 101.2%
- Amount of component, percentage of amount at initial time ([1]; Example 12: thawed solution from Example 10, pH 6.0, amikacin sulfate added, no EDTA, 6 h): 98.3%
- Amount of component, percentage of amount at initial time ([1]; Example 12: thawed solution from Example 10, pH 6.0, amikacin sulfate added, no EDTA, 8 h): 95.1%

SMILES: CCN1CCN(C(=O)N[C@@H](C(=O)N[C@@H]2C(=O)N3C(C(=O)O)=C(CSc4nnnn4C)CS[C@H]23)c2ccc(O)cc2)C(=O)C1=O [Cefoperazone sodium, cefoperazone sodium]
- Amount of component, percentage of amount at initial time ([1]; Example 4 solution (cefoperazone sodium, sulbactam sodium, gentamicin, sodium citrate pH 6.75, no EDTA), room temperature, 0 h): 101.4%
- Amount of component, percentage of amount at initial time ([1]; Example 4 solution (cefoperazone sodium, sulbactam sodium, gentamicin, sodium citrate pH 6.75, no EDTA), room temperature, 1 h): 98.66%
- Amount of component, percentage of amount at initial time ([1]; Example 4 solution (cefoperazone sodium, sulbactam sodium, gentamicin, sodium citrate pH 6.75, no EDTA), room temperature, 2 h): 98.79%
- Amount of component, percentage of amount at initial time ([1]; Example 4 solution (cefoperazone sodium, sulbactam sodium, gentamicin, sodium citrate pH 6.75, no EDTA), room temperature, 4 h): 101.5%
- Amount of component, percentage of amount at initial time ([1]; Example 4 solution (cefoperazone sodium, sulbactam sodium, gentamicin, sodium citrate pH 6.75, no EDTA), room temperature, 6 h): 107.4%
- Amount of component, percentage of amount at initial time ([1]; Example 5 solution (cefoperazone sodium, sulbactam sodium, gentamicin, disodium EDTA, sodium citrate pH 6.75), room temperature, 0 h): 101.4%
- Amount of component, percentage of amount at initial time ([1]; Example 5 solution (cefoperazone sodium, sulbactam sodium, gentamicin, disodium EDTA, sodium citrate pH 6.75), room temperature, 1 h): 98.66%
- Amount of component, percentage of amount at initial time ([1]; Example 5 solution (cefoperazone sodium, sulbactam sodium, gentamicin, disodium EDTA, sodium citrate pH 6.75), room temperature, 2 h): 98.79%
- Amount of component, percentage of amount at initial time ([1]; Example 5 solution (cefoperazone sodium, sulbactam sodium, gentamicin, disodium EDTA, sodium citrate pH 6.75), room temperature, 4 h): 101.5%
- Amount of component, percentage of amount at initial time ([1]; Example 5 solution (cefoperazone sodium, sulbactam sodium, gentamicin, disodium EDTA, sodium citrate pH 6.75), room temperature, 6 h): 107.4%
- Amount of component, percentage of amount at initial time ([1]; Example 6 solution (cefoperazone sodium, sulbactam sodium, etimicin sulfate, disodium EDTA, sodium citrate pH 6.5), room temperature, 0 h): 110.4%
- Amount of component, percentage of amount at initial time ([1]; Example 6 solution (cefoperazone sodium, sulbactam sodium, etimicin sulfate, disodium EDTA, sodium citrate pH 6.5), room temperature, 1 h): 99.48%
- Amount of component, percentage of amount at initial time ([1]; Example 6 solution (cefoperazone sodium, sulbactam sodium, etimicin sulfate, disodium EDTA, sodium citrate pH 6.5), room temperature, 2 h): 101.3%
- Amount of component, percentage of amount at initial time ([1]; Example 6 solution (cefoperazone sodium, sulbactam sodium, etimicin sulfate, disodium EDTA, sodium citrate pH 6.5), room temperature, 4 h): 98.66%
- Amount of component, percentage of amount at initial time ([1]; Example 6 solution (cefoperazone sodium, sulbactam sodium, etimicin sulfate, disodium EDTA, sodium citrate pH 6.5), room temperature, 6 h): 98.02%
- Amount of component, percentage of amount at initial time ([1]; Example 6 solution (cefoperazone sodium, sulbactam sodium, etimicin sulfate, disodium EDTA, sodium citrate pH 6.5), room temperature, 8 h): 99.30%
- Amount of component, percentage of amount at initial time [1, 3]: 100.2%
- Amount of component, percentage of amount at initial time [1, 4]: 99.0%
- Amount of component, percentage of amount at initial time [1, 5]: 99.0%
- Amount of component, percentage of amount at initial time [1, 6]: 96.2%
- Amount of component, percentage of amount at initial time [1, 7]: 94.5%
- Amount of component, percentage of amount at initial time [1, 8]: 95.3%
- Amount of component, percentage of amount at initial time ([1]; Example 14: cefoperazone sodium/tazobactam sodium solution pH 6.75, etimicin sulfate added, 0 h): 100.2%
- Amount of component, percentage of amount at initial time ([1]; Example 14: cefoperazone sodium/tazobactam sodium solution pH 6.75, etimicin sulfate added, 1 h): 99.0%
- Amount of component, percentage of amount at initial time ([1]; Example 14: cefoperazone sodium/tazobactam sodium solution pH 6.75, etimicin sulfate added, 2 h): 99.0%
- Amount of component, percentage of amount at initial time ([1]; Example 14: cefoperazone sodium/tazobactam sodium solution pH 6.75, etimicin sulfate added, 4 h): 96.2%
- Amount of component, percentage of amount at initial time ([1]; Example 14: cefoperazone sodium/tazobactam sodium solution pH 6.75, etimicin sulfate added, 6 h): 94.5%
- Amount of component, percentage of amount at initial time ([1]; Example 14: cefoperazone sodium/tazobactam sodium solution pH 6.75, etimicin sulfate added, 8 h): 95.3%

SMILES: C[C@]1(Cn2ccnn2)[C@H](C(=O)O)N2C(=O)C[C@H]2S1(=O)=O [Tazobactam sodium, tazobactam sodium]
- Amount of component, percentage of amount at initial time ([1]; Example 8 solution (ceftriaxone sodium, tazobactam sodium, gentamicin sulfate, sodium citrate pH 6.75), room temperature, 0 h): 102.2%
- Amount of component, percentage of amount at initial time ([1]; Example 8 solution (ceftriaxone sodium, tazobactam sodium, gentamicin sulfate, sodium citrate pH 6.75), room temperature, 1 h): 97.53%
- Amount of component, percentage of amount at initial time ([1]; Example 8 solution (ceftriaxone sodium, tazobactam sodium, gentamicin sulfate, sodium citrate pH 6.75), room temperature, 2 h): 94.16%
- Amount of component, percentage of amount at initial time ([1]; Example 8 solution (ceftriaxone sodium, tazobactam sodium, gentamicin sulfate, sodium citrate pH 6.75), room temperature, 4 h): 94.58%
- Amount of component, percentage of amount at initial time ([1]; Example 8 solution (ceftriaxone sodium, tazobactam sodium, gentamicin sulfate, sodium citrate pH 6.75), room temperature, 6 h): 95.45%
- Amount of component, percentage of amount at initial time ([1]; Example 8 solution (ceftriaxone sodium, tazobactam sodium, gentamicin sulfate, sodium citrate pH 6.75), room temperature, 8 h): 94.44%
- Amount of component, percentage of amount at initial time [1, 3]: 98.5%
- Amount of component, percentage of amount at initial time [1, 4]: 98.7%
- Amount of component, percentage of amount at initial time [1, 5]: 98.2%
- Amount of component, percentage of amount at initial time [1, 6]: 95.6%
- Amount of component, percentage of amount at initial time [1, 7]: 94.0%
- Amount of component, percentage of amount at initial time [1, 8]: 96.1%

SMILES: O=C(O)CN(CCN(CC(=O)O)CC(=O)O)CC(=O)O [EDTA, ethylenediamine tetraacetic acid]
- Effect on aggregate particle formation in the solution preparations [2]: significantly reduce aggregate particle formation; also recorded: effective in inhibiting formation of aggregate particles

SMILES: CC1(C)S[C@@H]2[C@H](NC(=O)[C@H](NC(=O)N3CCN(S(C)(=O)=O)C3=O)c3ccccc3)C(=O)N2[C@H]1C(=O)O [Mezlocillin sodium, mezlocillin sodium]
- Amount of component, percentage of amount at initial time ([1]; Example 9: freeze-dried amikacin sulfate/disodium EDTA/citrate pH 6.5 powder stored 7 days at 0° C., redissolved, mezlocillin sodium added, 0 h): 94.68%
- Amount of component, percentage of amount at initial time ([1]; Example 9: freeze-dried amikacin sulfate/disodium EDTA/citrate pH 6.5 powder stored 7 days at 0° C., redissolved, mezlocillin sodium added, 1 h): 95.90%
- Amount of component, percentage of amount at initial time ([1]; Example 9: freeze-dried amikacin sulfate/disodium EDTA/citrate pH 6.5 powder stored 7 days at 0° C., redissolved, mezlocillin sodium added, 2 h): 71.70%
- Amount of component, percentage of amount at initial time ([1]; Example 9: freeze-dried amikacin sulfate/disodium EDTA/citrate pH 6.5 powder stored 7 days at 0° C., redissolved, mezlocillin sodium added, 4 h): 91.78%
- Amount of component, percentage of amount at initial time ([1]; Example 9: freeze-dried amikacin sulfate/disodium EDTA/citrate pH 6.5 powder stored 7 days at 0° C., redissolved, mezlocillin sodium added, 6 h): 93.08%
- Amount of component, percentage of amount at initial time ([1]; Example 9: freeze-dried amikacin sulfate/disodium EDTA/citrate pH 6.5 powder stored 7 days at 0° C., redissolved, mezlocillin sodium added, 8 h): 97.69%
